# From US20230279072A1, “REGULATORY T CELL EPITOPES” (EpiVax Inc., priority 2020, published 2023)
# Entries after “also recorded” stand apart in the source; their conditions may differ.
# Assays:
# [1] = tested on: HLA-DRB1*0101, *0301, *0401, *0701, *1101, *1301 and *1501 alleles; experiment: In vitro HLA DRB1 binding assay, panel of seven alleles; parameters: species or system human
# Protocol: The six FV peptides were tested for in vitro binding to HLA-DRB1*0101, *0301, *0401, *0701, *1101, *1301 and *1501 alleles.
# [2] = tested on: CD4+CD25+FoxP3+ regulatory T cells; assay type: cell-based, human
# [3] = tested on: CD4+ T cells in PBMCs from healthy donors; experiment: Tetanus Toxoid Bystander Suppression Assay (TTBSA); assay type: cell-based, human
# [4] = tested on: CD4+ effector memory T cells; experiment: Suppression of Tetanus Toxoid stimulated CD4+ effector T cells in PBMC; assay type: cell-based, human
# Protocol: Previously harvested and frozen PBMC were thawed and suspended in conditioned chRPMI (3.3×10^6 cells/mL) by conventional means. Cells were stained with CFSE (Cat #: 65-0850-84, Affymetrix, Santa Clara, Calif.) and plated at 300,000 cells per well. Plates were incubated overnight (37° C. in 5% CO2). […] Previous titration experiments performed at EpiVax (EpiVax, Providence, R.I.) have established that stimulation with 0.5 μg/ml Tetanus Toxoid (TT) (Astarte Biologics, Bothell, Wash.) elicits a measurable CD4+ effector memory T cells response in PBMC drawn from healthy control donors (Rhode Island Blood Center, Providence, R.I.). Tetanus Toxoid stock (100 μg/mL) (Astarte Biologics, Bothell, Wash.) was diluted in conditioned chRPMI yielding a working concentration of 1 ug/mL. […] All plates were then incubated for six additional days. On assay day five, 100 μL of supernatant was removed from each well and replaced with freshly conditioned chRPMI.
# On assay day seven, cells were removed from incubation. Cells were labeled for live/dead discrimination, for surface markers CD127, CCR7, CD4, CD45RA, and CD25 and for intracellular FoxP3. Stained cells were further prepared for FACS analysis by conventional means. Cells were first gated to eliminate aggregates and dead cells. Live cells were gated for CD4 T cells and all subsequent analysis was done on this population. The activated Teffector population was identified as the CD4+/CD25-high/FoxP3-intermediate (CD4+/CD25^1/FoxP3int) (FIG. 8A).
# Proliferation of CD4+/CD25-high (CD4^+/CD25^hi) T cells was estimated from the dilution of the CFSE stain (Cat #: 65-0850-84, Affymetrix, Santa Clara, Calif.) and % proliferation determined by the CFSE-low (CFSEL^lo) population (FIG. 8B).
# HLA DRB1*0701 = HLA DRB1*0701 (Homo sapiens, UniProt P01903+P01911, A100R/A102G/A103Q/D57E/D86V/E43K/F76Y/K127E/L162R/M171V/P40G/Q125H/Q99D/R33Q/R42Y/R54Q/S133A/S66F/T210M/V115G/Y107V/Y59L/Y89S); experiment: HLA DRB1 (IC50) | *0701
# HLA DRB1*1101 = HLA DRB1*1101 (Homo sapiens, UniProt P01903+P01911, A100R/A169T/A87E/I96F/K41T/L162R/M171V/P40S/Q125H/Q178H/Q39Y/Q99D/R42S/S66Y/T262R/V115G/W38E); experiment: HLA DRB1 (IC50) | *1101
# Chain of HLA DRB1*1101 (P01903 26-254 limits assumed, other chains not shown): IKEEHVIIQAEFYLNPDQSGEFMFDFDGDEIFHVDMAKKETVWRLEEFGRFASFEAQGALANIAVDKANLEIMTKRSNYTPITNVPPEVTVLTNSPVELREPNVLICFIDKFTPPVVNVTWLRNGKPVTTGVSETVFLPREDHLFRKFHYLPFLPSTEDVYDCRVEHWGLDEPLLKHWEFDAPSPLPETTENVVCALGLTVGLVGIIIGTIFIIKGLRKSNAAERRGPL
# HLA DRB1*0401 = HLA DRB1*0401 (Homo sapiens, UniProt P01903+P01911, A100K/A169T/F76Y/I96L/K127E/L162R/M171V/N62H/P40V/Q125Y/R42H/S133A/S149N/S66Y/V115G/V209L/W38E); experiment: HLA DRB1 (IC50) | *0401
# [5] = tested on: PBMCs from lupus patients; details: cited from earlier work
# human DR molecules = details: cited from earlier work
compound,measurement,setting,value
CC[C@H](C)[C@H](NC(=O)[C@H](CO)NC(=O)[C@H](Cc1ccc(O)cc1)NC(=O)[C@@H]1CCCN1C(=O)[C@H](CCCNC(=N)N)NC(=O)[C@H](CO)NC(=O)[C@H](C)NC(=O)[C@H](CCSC)NC(=O)[C@H](CC(N)=O)NC(=O)[C@H](CCCCN)NC(=O)[C@H](Cc1ccccc1)NC(=O)[C@@H](NC(=O)[C@@H](NC(=O)[C@H](CCCCN)NC(C)=O)[C@@H](C)CC)C(C)C)C(=O)N[C@@H](Cc1ccc(O)cc1)C(N)=O [SEQ ID NO: 3],binding affinity to HLA DR alleles (in words),[1]; across the alleles tested,strong affinity
same,breadth of binding to HLA DRB1 alleles,"[1]; seven alleles, listed as FV432",binding to nearly all of the HLA DRB1 alleles tested; also recorded: bind to multiple HLA DRB1 alleles
same,relative proportion of highly proliferative regulatory T cells (CFSE low FoxP3+) among CD25+ Granzyme B+ CD4+ T cells,[2],no significant effect
same,inhibition of the CD4+ T memory response / T effector proliferation in the TTBSA,[3],did not inhibit
same,activated (CD25 high) proliferating (CFSE low) CD4 T cells stimulated by Tetanus Toxoid,[4],no significant inhibitory effect
same,activated effector CD4+ T cells (CD4+/CD25-high/FoxP3-intermediate) reacting to Tetanus Toxoid,[4],no appreciable effect
same,proliferation of CD4− cells,[4]; FIG. 11,little inhibitory effect
same,proliferation of total CD4+ T cells (CFSE low),"[4]; donor 114, dose-dependent",little to no effect
"CC[C@H](C)[C@H](NC(=O)[C@@H](NC(=O)[C@H](CC(C)C)NC(=O)[C@@H](NC(=O)[C@H](Cc1ccccc1)NC(=O)[C@H](CC(=O)O)NC(=O)[C@@H](NC(=O)CN)[C@@H](C)O)[C@@H](C)O)[C@@H](C)O)C(=O)N[C@@H](CO)C(=O)N[C@@H](CO)C(=O)N[C@@H](CC(C)C)C(=O)N[C@@H](CCC(N)=O)C(=O)N1CCC[C@H]1C(=O)N[C@@H](CCC(=O)O)C(=O)N[C@@H](CC(=O)O)C(=O)O [SEQ ID NO: 117 | Tregitope 084, GTDFTLTISSLQPED]",IC50,HLA DRB1*0701,< 1 µM
same,IC50,HLA DRB1*1101,100 µM
same,IC50,HLA DRB1*0401,< 1 µM
"RIHMVYSKRSGKPRGYAFIEY (listed as Homo sapiens) [peptide 131-151, residues 131-151 of the spliceosome protein]",randomly selected lupus patients whose PBMCs contain T cells that proliferate in response to the peptide,[5],40%
same,binding to human DR molecules,human DR molecules,binds to a large panel of human DR molecules
